According to the CheMixHub ionic liquid set:

Test: xn = mol fraction of the nth substance listed

O=S(=O)([N-]S(=O)(=O)C(F)(F)F)C(F)(F)F.[Li+] + O
Settings	electrical conductivity [S/m]	viscosity [mPa·s]
267.18 K, 100 kPa, x2 = 0.8271	1.02	–
272.15 K, 100 kPa, x2 = 0.8855	2.04	–
282.32 K, 100 kPa, x2 = 0.7538	0.699	–
283 K, 101 kPa, x1 = 0.2649	0.62	–
288.36 K, 100 kPa, x2 = 0.7538	0.861	–
292.1 K, 100 kPa, x1 = 0.0039	0.966	–
292.3 K, 100 kPa, x2 = 0.8065	1.98	–
293 K, 100 kPa, x1 = 0.25	–	23.6
293 K, 101 kPa, x1 = 0.2649	0.89	69.2
296.88 K, 100 kPa, x2 = 0.8271	2.71	–
298 K, 101 kPa, x1 = 0.005377	1.2	1.11
298 K, 101 kPa, x1 = 0.05933	5.79	3.11
298 K, 101 kPa, x1 = 0.112	–	5.56
298 K, 101 kPa, x1 = 0.1134	4.7	–
298 K, 101 kPa, x1 = 0.1778	2.99	–
298 K, 101 kPa, x1 = 0.2128	2.2	22.22
298 K, 101 kPa, x1 = 0.2639	0.97	–
298 K, 101 kPa, x1 = 0.2649	–	51.3
298.1 K, 101 kPa, x1 = 0.2649	1.04	55.3
298.15 K, 100 kPa, x1 = 0.112	–	5.2
298.15 K, 100 kPa, x1 = 0.1896	–	15.8
298.15 K, 100 kPa, x1 = 0.2333	–	30.7
298.15 K, 100 kPa, x1 = 0.2547	–	42.3
298.15 K, 100 kPa, x1 = 0.2741	–	54.1
301.65 K, 100 kPa, x2 = 0.8271	3.13	–
302.07 K, 100 kPa, x2 = 0.7538	1.38	–
302.07 K, 100 kPa, x2 = 0.9148	5.85	–
302.88 K, 100 kPa, x2 = 0.8495	4.06	–
303 K, 101 kPa, x1 = 0.2649	1.22	45.4
307.05 K, 100 kPa, x2 = 0.8065	2.85	–
307.24 K, 100 kPa, x2 = 0.9761	4.9	–
308.08 K, 100 kPa, x2 = 0.7538	1.61	–
308.15 K, 100 kPa, x1 = 0.112	–	4.3
308.15 K, 100 kPa, x1 = 0.1896	–	11.5
308.15 K, 100 kPa, x1 = 0.2333	–	21.5
308.15 K, 100 kPa, x1 = 0.2547	–	29
308.15 K, 100 kPa, x1 = 0.2741	–	36.1
312.24 K, 100 kPa, x2 = 0.8065	3.3	–
312.86 K, 100 kPa, x2 = 0.6988	0.916	–
313 K, 101 kPa, x1 = 0.2649	1.6	30.9
315.76 K, 100 kPa, x2 = 0.7857	2.85	–
317.41 K, 100 kPa, x2 = 0.8271	4.37	–
317.41 K, 100 kPa, x2 = 0.8495	5.49	–
318.15 K, 100 kPa, x1 = 0.112	–	3.4
318.15 K, 100 kPa, x1 = 0.1896	–	8.6
318.15 K, 100 kPa, x1 = 0.2333	–	15.8
318.15 K, 100 kPa, x1 = 0.2547	–	20.9
318.15 K, 100 kPa, x1 = 0.2741	–	25.5
318.47 K, 100 kPa, x2 = 0.6988	1.07	–
320.96 K, 100 kPa, x2 = 0.7857	3.2	–
321.15 K, 100 kPa, x2 = 0.9761	6.42	–
322.41 K, 100 kPa, x2 = 0.7538	2.29	–
323 K, 101 kPa, x1 = 0.2649	2.04	21.8
327.61 K, 100 kPa, x2 = 0.8271	5.33	–
327.8 K, 100 kPa, x2 = 0.6988	1.36	–
328.15 K, 100 kPa, x1 = 0.112	–	2.8
328.15 K, 100 kPa, x1 = 0.1896	–	6.6
328.15 K, 100 kPa, x1 = 0.2333	–	12
328.15 K, 100 kPa, x1 = 0.2547	–	15.6
328.15 K, 100 kPa, x1 = 0.2741	–	18.7
329.06 K, 100 kPa, x2 = 0.7857	3.73	–
331.74 K, 100 kPa, x2 = 0.8271	5.85	–
331.96 K, 100 kPa, x2 = 0.8065	4.85	–
332.16 K, 100 kPa, x2 = 0.8855	8.87	–
332.58 K, 100 kPa, x2 = 0.9148	10.1	–
333 K, 100 kPa, x2 = 0.7538	2.85	–
333 K, 100 kPa, x2 = 0.8495	7.06	–
333 K, 101 kPa, x1 = 0.2649	2.58	16.2
334.65 K, 100 kPa, x2 = 0.7857	4.15	–
336.52 K, 100 kPa, x2 = 0.8855	9.74	–
339.84 K, 100 kPa, x2 = 0.7857	4.6	–
341.52 K, 100 kPa, x2 = 0.8271	6.77	–
341.94 K, 100 kPa, x1 = 0.0039	2.36	–
342.13 K, 100 kPa, x2 = 0.6601	1.19	–
342.75 K, 100 kPa, x2 = 0.8065	5.73	–
343.17 K, 100 kPa, x2 = 0.7538	3.44	–
347.11 K, 100 kPa, x1 = 0.0039	2.52	–
347.33 K, 100 kPa, x2 = 0.6988	2.11	–
347.53 K, 100 kPa, x2 = 0.9761	9.34	–
347.94 K, 100 kPa, x2 = 0.8495	8.69	–
352.3 K, 100 kPa, x2 = 0.8855	11.8	–
352.92 K, 100 kPa, x2 = 0.8065	6.69	–
356.24 K, 100 kPa, x2 = 0.7857	5.78	–
357.3 K, 100 kPa, x2 = 0.8855	12.1	–
357.7 K, 100 kPa, x2 = 0.9148	13.9	–
